Results taken from ChEMBL document CHEMBL2034937, “Novel 3-Oxazolidinedione-6-aryl-pyridinones as Potent, Selective, and Orally Active EP3 Receptor Antagonists” (ACS Med Chem Lett, 2010).
Activity calls are given as the source filed them. The calls are words filed in the database; no cut-off is given here.

Columns and labels:
Rattus norvegicus [1] = assay: Inhibition of GR63799-induced decrease in bladder capacity in conscious spontaneously hypertensive overactive bladder rat model at 3 mg/kg, id; format: functional, organism-based; set-up: dose 3 mg/kg; conditions: Urinary bladder
[2] = Antagonist activity at dog EP3 receptor expressed in human U2OS cells co-expressing Gqi5 assessed as inhibition of PGE2-induced response after 24 hrs by FLIPR assay; format: functional, cell-based, Canis lupus familiaris
Rattus norvegicus [3] = assay: Inhibition of GR63799-induced decrease in bladder capacity in conscious spontaneously hypertensive overactive bladder rat model at 30 mg/kg, id; format: functional, organism-based; set-up: dose 30 mg/kg; conditions: Urinary bladder
Rattus norvegicus [4] = assay: Inhibition of GR63799-induced decrease in bladder capacity in conscious spontaneously hypertensive overactive bladder rat model at 0.3 mg/kg, id; format: functional, organism-based; set-up: dose 0.3 mg/kg; conditions: Urinary bladder
Rattus norvegicus [5] = assay: Inhibition of saline-induced bladder rhythmic contraction in anesthetized iv dosed Sprague-Dawley rat model; format: functional, organism-based
Rattus norvegicus [6] = assay: Inhibition of PGE2-induced decrease in bladder capacity in conscious spontaneously hypertensive overactive bladder rat model at 30 mg/kg, id; format: functional, organism-based; set-up: dose 30 mg/kg; conditions: Urinary bladder
Rattus norvegicus [7] = assay: Inhibition of acetic acid-induced decrease in bladder capacity in conscious spontaneously hypertensive overactive bladder rat model at 30 mg/kg, id; format: functional, organism-based; set-up: dose 30 mg/kg; conditions: Urinary bladder

In the case of CC(C)C1(c2ccc(-c3ccc4ccccc4c3)[nH]c2=O)OC(=O)NC1=O (configuration not stated), the inhibition (Rattus norvegicus [1]) is reported as “Active”, the pKi [2] is reported as 7.7 and the inhibition (Rattus norvegicus [3]) is reported as “Active”. The inhibition (Rattus norvegicus [4]) was “inactive”, the inhibition (Rattus norvegicus [5]) was “Dose-dependent effect” and the inhibition (Rattus norvegicus [6]) was “Active”. For the same compound, the inhibition (Rattus norvegicus [7]) was “Active”.
